For series [1], the system named is Rattus norvegicus. Kind of series: Analgesic activity in rat model of partial sciatic nerve ligation-induced neuropathic pain assessed as reversal of allodynia at 3 mg/kg, po measured after 3 hrs relative to control. Format: functional.
A short description of series [2]: Oral bioavailability in rat at 1 mg/kg administered as cassette dose. Format: ADME, organism-based. The conditions noted are these: in vivo.
Series [3] can be described thus: Protein binding in rat plasma assessed as unbound fraction at 1 mg/kg administered as cassette dose. The format is ADME, organism-based.
Series [4] in a line: Free plasma concentration in rat plasma at 1 mg/kg administered as cassette dose. Format: ADME, organism-based. The conditions noted are these: in vivo.
Another series deals with T1, P2X purinoceptor 3 (Rattus norvegicus, UniProt P49654).
T1 sequence (P49654 whole entry): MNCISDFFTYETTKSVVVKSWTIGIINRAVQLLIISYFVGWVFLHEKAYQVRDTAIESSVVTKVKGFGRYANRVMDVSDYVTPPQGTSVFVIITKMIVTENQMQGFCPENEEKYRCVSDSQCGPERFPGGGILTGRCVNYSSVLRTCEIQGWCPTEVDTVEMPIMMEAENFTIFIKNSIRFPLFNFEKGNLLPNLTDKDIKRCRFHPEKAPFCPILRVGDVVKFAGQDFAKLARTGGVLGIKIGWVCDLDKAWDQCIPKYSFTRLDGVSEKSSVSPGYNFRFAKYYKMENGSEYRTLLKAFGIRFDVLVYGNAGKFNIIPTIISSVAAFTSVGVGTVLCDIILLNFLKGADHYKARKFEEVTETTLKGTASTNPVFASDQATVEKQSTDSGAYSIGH
Briefly: Antagonist activity at rat P2X3 receptor.

The target of the next series is T2, P2X purinoceptor 2 (Homo sapiens, UniProt Q9UBL9).
T2 sequence (Q9UBL9 whole entry): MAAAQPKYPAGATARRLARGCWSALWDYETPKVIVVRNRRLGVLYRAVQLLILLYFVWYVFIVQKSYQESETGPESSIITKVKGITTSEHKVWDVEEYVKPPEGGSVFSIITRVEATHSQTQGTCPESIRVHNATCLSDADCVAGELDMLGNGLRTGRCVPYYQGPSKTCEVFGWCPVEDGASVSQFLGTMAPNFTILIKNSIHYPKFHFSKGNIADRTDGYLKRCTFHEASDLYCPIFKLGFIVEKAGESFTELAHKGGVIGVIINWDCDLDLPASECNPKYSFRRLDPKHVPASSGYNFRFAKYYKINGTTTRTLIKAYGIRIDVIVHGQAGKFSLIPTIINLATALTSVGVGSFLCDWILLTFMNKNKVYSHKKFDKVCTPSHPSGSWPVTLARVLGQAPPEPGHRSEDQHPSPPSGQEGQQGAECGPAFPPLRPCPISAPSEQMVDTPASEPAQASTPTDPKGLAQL
Briefly: Antagonist activity at P2X2 receptor (unknown origin).

The next series concerns the target T3, P2X purinoceptor 4 (Homo sapiens, UniProt Q99571).
T3 sequence (Q99571 whole entry): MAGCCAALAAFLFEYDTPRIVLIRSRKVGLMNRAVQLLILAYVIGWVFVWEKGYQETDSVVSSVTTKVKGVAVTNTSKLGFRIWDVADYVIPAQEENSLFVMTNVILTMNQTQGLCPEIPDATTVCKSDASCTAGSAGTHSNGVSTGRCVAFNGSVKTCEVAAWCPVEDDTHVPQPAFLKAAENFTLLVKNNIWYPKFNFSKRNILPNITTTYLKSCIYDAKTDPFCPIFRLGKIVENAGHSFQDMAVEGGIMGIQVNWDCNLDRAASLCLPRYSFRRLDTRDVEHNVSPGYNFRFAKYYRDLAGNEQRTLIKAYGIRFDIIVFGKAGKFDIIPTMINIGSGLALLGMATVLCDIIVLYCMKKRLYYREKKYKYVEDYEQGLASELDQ
Kind of series: Antagonist activity at P2X4 receptor (unknown origin).

A short description of series [5]: Solubility of the compound in pH 1.2 JP1 fluid. Format: physicochemical.
Series [6] is described as follows: Solubility of the compound in JP2 fluid at pH 6.8. The format is physicochemical.
The next series has as its target T4, Cytochrome P450 1A2 (Homo sapiens, UniProt P05177).
T4 sequence (P05177 whole entry): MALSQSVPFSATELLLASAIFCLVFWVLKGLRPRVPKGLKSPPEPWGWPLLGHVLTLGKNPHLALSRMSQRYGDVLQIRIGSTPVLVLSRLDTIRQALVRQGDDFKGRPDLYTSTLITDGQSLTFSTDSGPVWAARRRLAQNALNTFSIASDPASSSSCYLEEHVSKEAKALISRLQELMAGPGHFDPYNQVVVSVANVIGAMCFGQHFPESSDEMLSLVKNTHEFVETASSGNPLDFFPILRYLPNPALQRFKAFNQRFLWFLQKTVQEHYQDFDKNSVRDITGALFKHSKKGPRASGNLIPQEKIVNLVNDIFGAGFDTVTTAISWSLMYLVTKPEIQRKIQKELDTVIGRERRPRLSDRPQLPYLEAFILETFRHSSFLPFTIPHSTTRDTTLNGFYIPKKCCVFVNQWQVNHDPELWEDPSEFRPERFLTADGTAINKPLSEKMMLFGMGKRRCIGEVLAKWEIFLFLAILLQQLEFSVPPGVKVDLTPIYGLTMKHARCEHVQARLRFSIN
Kind of series: Inhibition of CYP1A2 (unknown origin). Format: ADME.

In the next series the target is Cytochrome P450 2C9 (Homo sapiens, UniProt P11712). Briefly: Inhibition of CYP2C9 (unknown origin). Format: ADME.
Cytochrome P450 2C9, sequence (P11712 whole entry): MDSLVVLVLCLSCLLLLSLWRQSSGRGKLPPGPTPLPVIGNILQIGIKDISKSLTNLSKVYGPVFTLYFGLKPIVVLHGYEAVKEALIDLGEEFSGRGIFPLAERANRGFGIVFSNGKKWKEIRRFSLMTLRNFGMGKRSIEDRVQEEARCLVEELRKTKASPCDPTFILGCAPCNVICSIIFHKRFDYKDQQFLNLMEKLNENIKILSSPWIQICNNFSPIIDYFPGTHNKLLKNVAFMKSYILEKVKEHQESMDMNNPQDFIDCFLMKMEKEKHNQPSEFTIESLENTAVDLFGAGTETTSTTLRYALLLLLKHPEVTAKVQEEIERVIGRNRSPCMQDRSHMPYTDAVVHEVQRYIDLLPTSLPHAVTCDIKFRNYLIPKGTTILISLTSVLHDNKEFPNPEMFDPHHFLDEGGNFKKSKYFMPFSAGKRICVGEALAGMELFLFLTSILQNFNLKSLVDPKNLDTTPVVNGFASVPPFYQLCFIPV
The target in another series is Cytochrome P450 2C19 (Homo sapiens, UniProt P33261). Briefly: Inhibition of CYP2C19 (unknown origin). The format is ADME.
Cytochrome P450 2C19, sequence (P33261 whole entry): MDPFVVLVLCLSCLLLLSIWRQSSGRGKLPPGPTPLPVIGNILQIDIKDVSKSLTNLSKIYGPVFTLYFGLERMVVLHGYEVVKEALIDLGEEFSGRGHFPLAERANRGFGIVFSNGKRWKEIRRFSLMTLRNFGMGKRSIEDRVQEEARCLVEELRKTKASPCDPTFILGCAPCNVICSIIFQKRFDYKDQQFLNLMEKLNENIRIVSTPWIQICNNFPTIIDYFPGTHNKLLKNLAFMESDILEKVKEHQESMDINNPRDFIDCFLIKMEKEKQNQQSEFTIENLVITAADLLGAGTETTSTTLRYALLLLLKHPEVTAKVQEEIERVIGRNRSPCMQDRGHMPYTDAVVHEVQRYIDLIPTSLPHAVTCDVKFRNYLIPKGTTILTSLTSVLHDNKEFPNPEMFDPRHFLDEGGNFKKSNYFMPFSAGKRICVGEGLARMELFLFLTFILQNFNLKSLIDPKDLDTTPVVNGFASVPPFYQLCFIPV
In the next series the target is Cytochrome P450 2D6 (Homo sapiens, UniProt P10635). Kind of series: Inhibition of CYP2D6 (unknown origin). Format: functional.
Cytochrome P450 2D6, sequence (P10635 whole entry): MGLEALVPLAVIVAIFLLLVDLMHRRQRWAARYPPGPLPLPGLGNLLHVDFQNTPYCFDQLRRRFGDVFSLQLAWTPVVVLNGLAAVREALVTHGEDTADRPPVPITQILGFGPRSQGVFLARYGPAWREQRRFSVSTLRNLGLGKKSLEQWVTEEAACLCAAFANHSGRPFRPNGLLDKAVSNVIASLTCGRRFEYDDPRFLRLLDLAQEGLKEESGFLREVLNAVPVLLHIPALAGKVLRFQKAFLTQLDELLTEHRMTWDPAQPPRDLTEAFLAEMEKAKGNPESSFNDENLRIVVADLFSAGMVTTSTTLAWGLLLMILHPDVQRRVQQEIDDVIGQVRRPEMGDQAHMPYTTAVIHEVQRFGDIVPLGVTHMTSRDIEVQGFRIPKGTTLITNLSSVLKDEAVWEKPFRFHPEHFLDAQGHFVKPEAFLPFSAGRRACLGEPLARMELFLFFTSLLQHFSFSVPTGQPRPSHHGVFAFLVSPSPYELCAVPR
For the next series, the target named is Cytochrome P450 3A4 (Homo sapiens, UniProt P08684). Kind of series: Inhibition of CYP3A4 (unknown origin). The format is ADME.
Cytochrome P450 3A4, sequence (P08684 whole entry): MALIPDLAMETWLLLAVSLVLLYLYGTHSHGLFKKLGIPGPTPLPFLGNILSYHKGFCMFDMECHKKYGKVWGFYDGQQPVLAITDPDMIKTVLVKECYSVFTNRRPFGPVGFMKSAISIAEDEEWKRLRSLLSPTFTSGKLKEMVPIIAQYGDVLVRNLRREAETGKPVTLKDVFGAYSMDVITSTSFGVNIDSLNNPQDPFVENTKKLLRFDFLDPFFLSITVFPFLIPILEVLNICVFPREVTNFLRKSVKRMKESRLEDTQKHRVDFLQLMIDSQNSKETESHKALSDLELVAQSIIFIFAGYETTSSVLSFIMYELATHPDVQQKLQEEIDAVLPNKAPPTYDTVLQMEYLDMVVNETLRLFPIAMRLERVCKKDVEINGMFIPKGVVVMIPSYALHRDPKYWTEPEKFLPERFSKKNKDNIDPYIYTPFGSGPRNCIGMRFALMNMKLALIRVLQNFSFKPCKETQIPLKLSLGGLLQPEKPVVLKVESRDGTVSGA
The nature of series [7]: Clearance in rat at 1 mg/kg, iv. The format is ADME, organism-based. The conditions noted are these: in vivo.
A short description of series [8]: Half life in rat at 1 mg/kg, iv. The conditions noted are these: in vivo. The format is ADME, organism-based.
Series [9] in a line: AUC in rat at 3 mg/kg, po. Also on record: dose 3 mg/kg. The conditions noted are these: in vivo. The format is ADME, organism-based.
Series [10] in a line: Cmax in rat at 3 mg/kg, po. The format is ADME, organism-based. Also on record: route oral, dose 3 mg/kg. The conditions noted are these: in vivo.
The nature of series [11]: Oral bioavailability in rat at 3 mg/kg. Format: ADME, organism-based. The conditions noted are these: in vivo.
The nature of series [12]: Protein binding in rat plasma assessed as unbound fraction at 3 mg/kg, iv. Format: ADME, organism-based.
Series [13] relates to Rattus norvegicus. Kind of series: Analgesic activity in po dosed rat model of partial sciatic nerve ligation-induced neuropathic pain. The format is functional.
Series [14] has as its system Rattus norvegicus. Briefly: Analgesic activity in rat model of partial sciatic nerve ligation-induced neuropathic pain assessed as maximum efficacy at 3 mg/kg, po relative to control. Format: functional.
Series [15] is described as follows: Ratio of plasma concentration in rat measured after 3 hrs to IC50 of P2X3 (unknown origin). The format is ADME. The conditions noted are these: in vivo.
The nature of series [16]: Ratio of free plasma concentration in rat measured after 3 hrs to IC50 of P2X3 (unknown origin). Format: ADME.

As a reminder, the bioavailability is the share of a dose that reaches the circulation, judged against a reference dose that is usually intravenous. A higher bioavailability goes with good availability. Usually fraction unbound stands for free concentration divided by total concentration. In general, IC50 refers to the midpoint of a concentration-inhibition curve. A low value points to higher potency. A word on the solubility: it is the concentration that dissolves in the medium under given conditions. The clearance is a measure of how efficiently the substance is removed, as volume per time. In general, half-life refers to the time in which the quantity being followed falls by half. The term AUC denotes concentration integrated over time. Low readings indicate less exposure, high ones more exposure. Broadly, the Cmax is the highest concentration seen after dosing. By ED50 is commonly meant the dose at which the effect has come halfway, by size or by number of responders. High values mean weaker potency, low ones greater potency. As a reminder, the Emax is the maximal effect, on the per cent scale that the assay sets.

≈ marks a conversion by molar mass, not a printed value. Bounds are passed on as bounds.

As for `C[C@@H](Cn1c(=O)[nH]/c(=N\c2ccc(Oc3ccccn3)cc2)n(Cc2ccc(Cl)cc2)c1=O)C(=O)O`, in the series on Rattus norvegicus [1], the Activity is recorded as 64%. Moreover, the bioavailability in series [2] was found to be 52.8%; in series [11], 76.8%. The free fraction (fraction unbound) in [3] and in [12] was 0.01 in each case. Further, the “Cp(f)” value in series [4] was determined as 658 nM. The concentration for half-maximal inhibition (IC50) on P2X purinoceptor 3 was 0.004 µM; against P2X purinoceptor 2, over 30 µM; against P2X purinoceptor 4, over 30 µM; against Cytochrome P450 1A2 it was over 20 µM; against Cytochrome P450 2C9 it was over 20 µM; against Cytochrome P450 2C19 it was over 20 µM. Further, the half-inhibitory concentration (IC50) against Cytochrome P450 2D6 and at Cytochrome P450 3A4 was over 20 µM throughout. In addition, the solubility in [5] was determined as 31.5 µg/mL (≈ 62 µM); in series [6] it was 458 µg/mL (≈ 902 µM). Moreover, the clearance in series [7] turned out to be 2.7 mL/min/kg. This molecule had a half-life in [8] of 10.1 h. In [9], this molecule showed an AUC of 14000 ng·h/mL. The molecule further gave a peak concentration (Cmax) in series [10] of 1630 ng/mL. In the series with Rattus norvegicus [13], this molecule registered an ED50 of 0.4 mg/kg. Further, the maximal effect (Emax) at 3 mg/kg with Rattus norvegicus [14] came to 64%. For the same molecule, the values for the Ratio in series [15] and in series [16] were 156.9 and 1.57, respectively.

(Values after ChEMBL document CHEMBL5030545, “Discovery of clinical candidate Sivopixant (S-600918): Lead optimization of dioxotriazine derivatives as selective P2X3 receptor antagonists” (Bioorg Med Chem Lett, 2021).)
